Measured values taken from patent US6979687B1, “Theophylline-based soluble guanylyl cyclase activators KMUP-1 analogues enhanced cyclic GMP and K+ channel activities on rabbit corpus cavernosum smooth muscle and intercavernous pressure activities” (Cho-Jan Liang, priority 2002, dated 2005).
Where two headings read alike, the source gives them in different places.

Tests used:
[1] = Learning and memory behavioral tasks (Morris water maze, passive inhibitory and active avoidance, rotorod); assay type: in vivo
Description: Long-term potentiation (LTP) is a potential cellular mechanism underlying learning and memory. Nitric oxide (NO) acts as a retrograde messenger and its downstream effectors are also involved in the modulation of synaptic plasticity in various brain regions such as hippocampus, amygdala, cerebellum, brain stem, cortex etc. Although nitric oxide (NO) is thought to affect synaptic potentiation in various brain regions, the NO-cGMP-PKG pathway involved in memory acquisition in living animals is still unclear. […]. The stimulating parameter which induced long-lasting depression was shifted to a lower frequency by theophylline-based derivative. Furthermore, simultaneous perfusion of theophylline-based derivatives with different concentration of NO donor induced LTP or LTD when the hippocampal slices were stimulated at a frequency as low as 0.02 Hz. The effects of theophylline-based derivative on the behavioral tasks in the following anomal models were examined: Morris water maze, passive inhibitory and active avoidance tests, and rotorod test. […] KMUP-1 injected (1 mg/kg,i.p.) 10 min before the training shortened the escape latency in water maze, increased the retention scores in passive inhibitory avoidance task, decreased the retention time in active avoidance test, and enhanced the motor coorfination in the examination of rotorod. […] YC-1 thus enhanced LTP, learning and memory in an NO-cGMP-PKG-dependent pathway and is a promising drug to enhance learning and memory in human being.

[2] = test system: rabbit corpus cavernosum smooth muscle; assay: Rabbit corpus cavernosum smooth muscle relaxation, organ bath; assay type: cell-based
Description: (§1) Disruption of endothelium The endothelium lining the lacunar spaces of rabbit corpus cavernosum was disrupted and/or removed by detergent treatment using a modification of a protocol for blood vessels, described elsewhere (kim N. et al., J. Clin. Invest., 88, 112–118, 1991). The intact, isolated penis was placed in a tray containing chilled physiological salt solution (PSS). A 21-guage minicatheter was inserted into each corporal body at the proximal end of the penis. A third minicatheter was inserted into the distal end, below the glans penis, where the right and left corpora communicate. While the distal and one proximal minicatheter were clamped, 3 ml of CHAPS (wt vol.^−) in saline was infused into the remaining proximal catheter. After a short interval (˜20 s), the clamped minicatheters were opened and the preparation was washed by infusion of saline. The corpora cavernosa were then removed and tested for endothelial integrity.
Tissue procurement and organ bath experiments Male rabbits were killed with pentobarbital and their penises excised rapidly and cut longitudinally into equal strips to give 3–6 segments. These segments were incubated in Kerbs-bicarbontate solution (NaCl, 118 mM; NaHCO3, 25 mM; KCl, 4.7 mM; KH2PO4, 1.2 mM; MgSO4, 1.2 mM; glucose, 11 mM; CaCl2, 2.5 mM; pH 7.3–7.4) maintained at 37° C. and aerated with 95% O2 and 5% CO2. Isometric tension was recorded with a force displacement transducer (UGO BASILE, Model 7004, Italy). Rabbit corpus cavernosum smooth muscles were stretched to a resting tension of 2 g and then contracted with phenylephrine (PE, 10 μM). Tissues were also treated with guanethidine (10 μM) to block contractions caused by noradrenaline, released from adrenergic neuron, and treated with atropine (1 μM) to prevent muscarinic effects caused by acetylcholine. When the stable constriction to phenylephrine was reached, concentration-response curves to KMUP-1 (0.001–10 μM) were constructed. Data were expressed as a percentage of the maximum contractile response to phenylephrine. To examine the possible action mechanisms of KMUP-1, the rabbit corpus cavernosum smooth muscles were pretreated with sGC (soluble guanylyl cyclase) inhibitors ODQ (1 μM), a NOS (nitric oxide synthase) inhibitor L-NAME (100 μM), a K^+ channel blocker Tetraethylammonium (TEA, 10 mM), a KATP channel blocker glibenclamide (1 μM), a voltage-dependent K^+ channel blocker 4-AP (100 μM) and Ca^2+-dpendent K^+ channel blockers apamin (1 μM) and charybdotoxin (0.1 μM) for 30 min prior to the addition of KMUP-1. To observe whether the rabbits corpus cavernosum smooth muscle relaxation of KMUP-1 are affected by a nonselective PDE (phosphodiesterase) inhibitor, we investigated the action of KMUP-1 in the presence of IBMX (0.5 μM). In another experiment, rabbit corpus cavernosum smooth muscles were preconstricted with 60 mM KCl. The KCl solution was prepared by substituting NaCl with KCl (60 mM) in an equimolar amount.
as §1, with “(kim” for “(kim N.”, “al.,” for “al., J. Clin. Invest., 88, 112–118,”, “vol.^−1)” for “vol.^−)”, “integrity. […]” for “integrity.”

[3] = test system: PDE (phosphodiesterase) in human platelets; assay: Phosphodiesterase assay, soluble PDE from human platelets, cyclic GMP substrate; assay type: biochemical; settings: at 100 μM, n=3
Protocol: Phosphodiesterase assay. Human platelets were isolated from whole blood using 50 mM Tris-HCl containg 5 mM MgCl2 (pH 7.5) and centrifuged to prepare platelet rich plasma. Washed human platelets were resuspended in 50 mM Tris-HCl containg 5 mM MgCl2 (pH 7.5). Platelets were then disrupted by sonicatio, and soluble PDE preparation was obtained by ultracentrifugation 105000 g for 60 min (4° C). […] After 20 min at 37° C., the samples were heated to 100° C. for 2 min. Ophiophagus Hannah snake venom (10 mg/ml, 10 μl) was then added and incubated at 37 C. for 10 min to convert the 5-GMP to the unchanged nucleosides, guanosine. An ion-exchange resin (200 μl) was added to bind all uncoverted cyclic GMP. After centrifuging, the supernatant was removed for determination in a liquid scintillation counter.

[4] = test system: rabbit corpus cavernosum smooth muscle cells; assay: Intracellular cGMP content in rabbit corpus cavernosum smooth muscle cells; assay type: cell-based; settings: for cGMP levels: 0.01–10 μM; for cGMP levels / guanosine 3′,5′-cyclic monophosphate levels: in the presence of IBMX (100 μM); for guanosine 3′,5′-cyclic monophosphate levels: 0.1, 1.0, 10, 100 μM
Protocol: (§2) Culture of rabbit corpus cavernosum smooth muscle cells Rabbit corpus cavernosum smooth muscles were obtained as sterile surgical specimens, the tissue was washed and cut into 1 to 2 mm pieces and placed into culture dishes with Dulbecco's modified Eagle's medium (DMEM) containing 20% fetal bovine serum (FBS), penicillin (100 U ml^−1), streptomycin (100 U ml^−1) and 2 mM Glutamine. After explants attached to the culture dish, usually 1 to 2 days, DMEM (Dulbecco's modified Eagle's medium) supplement with 10% FBS, penicillin, streptomycin, and glutamine were added. Smooth muscle cells migrated out from the explants in 3–5 days. At this time, the explants were removed, and cells were allowed to achieve confluence. Cells were detached using 0.05% trypsin, 0.02% EDTA at 37° C. for 5 minutes to establish secondary cultures. Cultures were maintained for no more than 4 passages. Cellular homogeneity was further confirmed by the presence of smooth muscle specific α-myosin and α-actin immunoreactivity. Indirect immunofluorescence staining for a variety of antigens was carried out by first plating the cells on chamber slides fixing the cells in 3.7% formaldehyde-phosphate buffered saline for 10 minutes and permeabilizing the cells with phosphate buffered saline 0.1% Triton X-100. Cells were then stained with either a mouse monoclonal antibody directed against the amino terminal 10 amino acids of α-smooth muscle actin and α-myosin (Moreland R. B. et al., J Urol., 153, 826–834, 1995).
Measurement of intracellular guanosine 3′,5′-cyclic monophosphate content Intracellular cGMP concentrations in rabbit corpus cavernosum smooth muscle cells were assayed as our previously described (Wu et al., 2001). In brief, cells were finally grown in 24-well plates (10^5 cells well^−1). […] Incubation was terminated by the addition of 6% trichloroacetic acid (TCA). Cell suspensions were sonicated and then centrifuged at 2500 g for 15 min at 4° C. Then, the supernatants were lyophilized and cGMP of each sample was determined using a commercially available radioimmunoassay kits (Amersham Pharmacia Biotech, Buckinghamshire, England).
as §2, with “Rabbit CCSMs (corpus” for “Rabbit corpus”, “smooth muscles)” for “smooth muscles”, “DMEM” for “DMEM (Dulbecco's modified Eagle's medium)”, “(Moreland” for “(Moreland R. B.”, “al.,” for “al., J Urol., 153, 826–834,”
Measurement of intracellular cyclic GMP content Intracellular cGMP concentrations in rabbit CCSM cells were assayed as our previously described (Wu et al., 2001). In brief, cells were finally grown in 24-well plates (10^5 cells well^−1). […] Incubation was terminated by the addition of 6% trichloroacetic acid (TCA). Cell suspensions were sonicated and then centrifuged at 2500 g for 15 min at 4° C. […]

[5] = test system: intracavernous pressure of rabbits; settings: for DT, duration of tumescence / ΔICP, peak increased intracavernous pressure: n=8; for intracavernous pressure, dose dependence: 0.2, 0.4, 0.6 mg kg−1 intracavernous
Protocol: Measurement of intracavernous pressure Male rabbits were used for the investigation. After sedation with an intramuscular injection of ketamine (10 mg kg^−1), the rabbits were anaesthetized with intraperitoneal pentobarbital (30 mg kg^−1) and maintained with 10 mg kg^−1 if needed. The animals breathed spontaneously. The rabbits were then placed in the supine position, and the body temperature was maintained at 37° C. The femoral artery was cannulated for continuous monitoring of systemic arterial pressure (SAP) and heart rate (HR) via a pressure transducer (Spectramed, Model P10EZ, U.S.A.). Under sterile conditions, the skin overlying the penis was incised and the corpora cavernosum was exposed at the root of the penis. A 25-gunge needle was inserted into the corpus cavernosum smooth muscles for pressure recording. The needle was connected to a three-way stopcock, thus permitting the intracavernous injection of the drugs. The tube was filled with heparinized saline (50 IU 2 h^−1) to prevent clotting.
Normal saline in increasing volumes (0.05, 0.1, 0.2 ml) was injected in four rabbits as a control group. […] In order to minimize the effect of the previous drug, the cavernous body was flushed with 0.2 ml normal saline before each injection and the time interval between each injection was at least 1.5 h.
Measurement of intracavernous pressure Male rabbits were used for the investigation. After sedation with an intramuscular injection of ketamine (10 mg kg^−1), the rabbits were anaesthetized with intraperitoneal pentobarbital (30 mg kg^−1) and maintained with 10 mg kg^−1 if needed. The animals breathed spontaneously. The rabbits were then placed in the supine position, and the body temperature was maintained at 37° C. The femoral artery was cannulated for continuous monitoring of systemic arterial pressure (SAP) and heart rate (HR) via a pressure transducer (Spectramed, Model P10EZ, U.S.A.). Under sterile conditions, the skin overlying the penis was incised and the corpora cavernosum was exposed at the root of the penis. A 25-gunge needle was inserted into the CCSMs for pressure recording. The needle was connected to a three-way stopcock, thus permitting the intracavernous injection of the drugs. The tube was filled with heparinized saline (50 IU 2 h^−1) to prevent clotting.

[6] = test system: rabbit aorta smooth muscle cells; assay: cGMP levels in rabbit aorta smooth muscle cells; assay type: cell-based; settings: for guanosine 3′,5′-cyclic monophosphate levels: 0.1, 1.0, 10, 100 μM, in the presence of IBMX (100 μM)
rabbit aortic rings = assay: Relaxation of phenylephrine-precontracted rabbit aortic rings; assay type: cell-based
[7] = 1 mg/kg i.p. 10 min before the training
[8] = in the presence of IBMX (0.5 μM)
[9] = 0.2 mg/kg intracavernous injection
[10] = 0.4 mg/kg intracavernous injection
[11] = 0.6 mg/kg intracavernous injection
[12] = pretreatments with methylene blue (100 μM) and ODQ (10 μM)

## Cn1c(=O)c2c(ncn2CCN2CCN(c3ccccc3Cl)CC2)n(C)c1=O [KMUP-1, 7-[2-[4-(2-chlorophenyl)piperazinyl]-ethyl]-1,3-dimethylxanthine]
[1]; [7]
  escape latency in water maze: shortened
  motor coordination in rotorod: enhanced
  retention scores in passive inhibitory avoidance task: increased
  retention time in active avoidance test: decreased
[1]; given 30 min after foot-shock
  retention of passive inhibitory avoidance: did not affect
[2]
  relaxant activities in rabbit CCSMs: concentration-dependent relaxant activities
  effect of combination with IBMX on CCSMs relaxations: additive effect
[2]; 0.001–10 μM, endothelium-denuded
  relaxation in endothelium-denuded (EC−) corpus cavernosum smooth muscle: concentration-dependent relaxations
[2]; after K+ channel blocker TEA (10 mM)
  −log EC50 of relaxation: 5.37±0.05
[2]; after KATP channel blocker glibenclamide (1 μM)
  −log EC50 of relaxation: 6.57±0.15
[2]; after NOS inhibitor L-NAME (100 μM)
  −log EC50 of relaxation: 6.51±0.08
[2]; after apamin (1 μM)
  −log EC50 of relaxation: 5.85±0.11
[2]; after charybdotoxin (0.1 μM)
  −log EC50 of relaxation: 5.63±0.09
[2]; after sGC inhibitor ODQ (1 μM)
  −log EC50 of relaxation: 6.79±0.12
[2]; after voltage-dependent K+ channel blocker 4-AP (100 μM)
  −log EC50 of relaxation: 5.83±0.17
[2]; at 10 μM
  relaxation of corpus cavernosum smooth muscle strips: completely relaxed
[2]; endothelium-intact (EC+), phenylephrine (10 μM)-precontracted, no blocker
  −log EC50 of relaxation: 7.19±0.09
[2]; high K+ (60 mM), 0.001–10 μM
  relaxation in the presence of high K+: great reduction of relaxation
[2]; [8]
  −log EC50 of relaxation: 8.65±0.14
[3]
  inhibition of PDE activity: 29±3.1%
[4]
  cGMP levels: increased the cGMP levels
[4]; pretreatment with ODQ (10 μM)
  cGMP levels after ODQ pretreatment: inhibited
[5]; [9]
  DT, duration of tumescence: 15 ± 2.24 min
  ΔICP, peak increased intracavernous pressure: 30 ± 5.25 mmHg
[5]; [10]
  DT, duration of tumescence: 27 ± 2.05 min
  ΔICP, peak increased intracavernous pressure: 55 ± 6.21 mmHg
[5]; [11]
  DT, duration of tumescence: 35 ± 3.45 min
  ΔICP, peak increased intracavernous pressure: 67 ± 12.32 mmHg
[5]
  intracavernous pressure, dose dependence: dose-dependent elevations
[5]; rabbit, in vivo
  HR (heart rate): unchanged
  SAP (systemic arterial pressure): unchanged

## COc1ccccc1N1CCN(CCn2cnc3c2c(=O)n(C)c(=O)n3C)CC1 [KMUP-2, 7-[2-[4-(2-methoxyphenyl)piperazinyl]-ethyl]-1,3-dimethylxanthine]
[6]
  guanosine 3′,5′-cyclic monophosphate levels: significantly increased
[6]; [12]
  cGMP levels after methylene blue and ODQ pretreatments: significantly inhibited
[2]
  relaxant activities in rabbit CCSMs: concentration-dependent relaxant activities
  effect of combination with IBMX on CCSMs relaxations: additive effect
[2]; compound alone, IBMX additive experiment (FIG. 6)
  −log EC50 of relaxation: 7.58±0.02
[2]; [8]
  −log EC50 of relaxation: 8.37±0.03
[3]
  inhibition of PDE activity: 21±2.1%
[4]
  guanosine 3′,5′-cyclic monophosphate levels: significantly increased
[4]; [12]
  cGMP levels after methylene blue and ODQ pretreatments: significantly inhibited
Rabbit aortic rings; KMUP-2 (0.01, 0.05, 0.1 μM) alone
  −log EC50 of relaxation in aortic rings: 5.69±0.02
Rabbit aortic rings; [8]
  −log EC50 of relaxation in aortic rings: 6.61±0.12

## CCCc1nn(C)c2c(=O)[nH]c(-c3cc(S(=O)(=O)N4CCN(C)CC4)ccc3OCC)nc12 [sildenafil, reference compound]
[6]
  guanosine 3′,5′-cyclic monophosphate levels: significant elevation
[4]
  cGMP levels: increased the cGMP levels
  guanosine 3′,5′-cyclic monophosphate levels: significant elevation
[5]; [9]
  DT, duration of tumescence: 19 ± 3.32 min
  ΔICP, peak increased intracavernous pressure: 28 ± 3.21 mmHg
[5]; [10]
  DT, duration of tumescence: 24 ± 3.45 min
  ΔICP, peak increased intracavernous pressure: 32 ± 4.05 mmHg
[5]; [11]
  DT, duration of tumescence: 28 ± 4.59 min
  ΔICP, peak increased intracavernous pressure: 40 ± 11.05 mmHg
[5]
  intracavernous pressure, dose dependence: dose-dependent elevations
